Test results taken from patent publication US20260306421A1, “SYSTEMS AND METHODS FOR TRANSDERMAN PATCH DELIVERY” (VITAMAX PATCH WHOLESALER LLC, priority 2022, published 2026).

Experiments:
[1] = Cholecalciferol phosphate adhesive suitability / compatibility screen; type: physicochemical
Experimental: Pre-formulation studies were performed to determine the compatibility of cholecalciferol phosphate (disodium and acid forms) with a range of adhesives (Table 38) that could be used to manufacture of the patch. The compatibility of the drugs with the patch excipients was assessed through checking the clarity of the mixture.
The compatibility of the adhesive with solvents and drug was established. The maximum drug loading in the adhesive following solvent evaporation was determined by mixing the drug, adhesive and co-solvents until a clear solution is obtained at different drug:adhesive ratios by placing a drop of solution onto patch backing sheet, leaving the slide to dry for 3-4 hours and examining the formed fil on the surface of the backings for evidence of drug crystals were assessed using KKmoon digital magnifier with LED light (China). Following patch optimization, the drug-adhesive solution was cast as 10×10 cm squares using of backing (3M™ Scotchpak™ Polyester Backing Film Laminate 9730). A sufficient volume of the adhesive was applied to achieve a target coating of 8 mg/cm^2. Following complete drying of the solvents, the adhesive layer was covered by M3 Release liner (SCOTCHPAK 9755), compressed, and then cut using 34 mm circular manual die cutter (SCP Super Cutting Press).

[2] = Chemical stability of cholecalciferol and cholecalciferol phosphate disodium in donor, extraction and receiver fluids; type: physicochemical; conditions: for chemical stability: 37° C., 24 h
Experimental: To assess the chemical stability of the test agents in the liquids in which they were to be dissolved for the skin permeation experiments, 1 mg/mL solutions of cholecalciferol and cholecalciferol phosphate disodium in propylene glycol (PG) were prepared and incubated at 37° C. for 24 h. In addition, 100 μg/mL cholecalciferol in 50:50 PG:ethanol mixture, 100 μg/mL cholecalciferol phosphate disodium in 90:10 methanol:water mixture as well as and in 50% PG 40% Methanol: 10% water pH 3.2 (90:10) were also incubated at 37° C. for 24 hours.

## cholecalciferol phosphate disodium
[1]
  compatibility with DURO-TAK 87-2516: compatible
  compatibility with DURO-TAK 87-9301: did not show compatibility
  miscibility with Oppanol B12 and Oppanol N100: did not show acceptable miscibility
[1]; DURO-TAK 87-2516
  highest active loading without any crystallization: 0.6 mg/mL
[1]; DURO-TAK 87-2516 93.2 μL, 10% w/v drug, 1.4 mL methanol, 2.75 mL ethyl acetate, 2 μL PG, 150 μL water
  Solubility: Clear
[1]; DURO-TAK 87-2516 100 μL, 10% w/v drug, 0.5 mL methanol, 0.5-1.5 mL ethyl acetate, 2 μL PG, no water
  Solubility: Not clear
[1]; DURO-TAK 87-2516 180 μL, 5% drug, 1.4 mL methanol, 2.5 mL ethyl acetate, 4 μL PG, 150 μL water
  Solubility: Clear
[1]; DURO-TAK 87-2516 200 μL, 3% drug, 0.9 mL methanol, 2 mL ethyl acetate, 40 μL PG, 100 μL water
  Solubility: Clear
[1]; DURO-TAK 87-9301 suitability screen, 4 mg drug, 0.2 mL adhesive, 1-4 mL ethyl acetate, 60 μL PG
  Solubility: Opaque
[1]; DURO-TAK 87-9301 suitability screen, 4 mg drug, no adhesive, 4 mL methanol, 40 μL PG
  Solubility: Clear
[2]; PG
  chemical stability: 86±5.7%
[2]; conclusions
  chemical stability (in words): indication of chemical instability
[2]; extraction fluid 90:10 methanol:water
  chemical stability: 98±1.6%
[2]; receiver fluid 50:50 PG:mobile phase (90:10 methanol:water pH 3.2)
  chemical stability: 71±2.7%
